2 compounds from patent publication US7345079B2, “Treatment of disorder related to low cyclic GMP levels” (Yung Shin Pharmaceuticals Industrial Co., Ltd, priority 2001, dated 2008) can be followed below.

One data set concerns the target T1, PDE 5 (Homo sapiens, UniProt O76074).
T1 construct: Washed human platelets were prepared by the method described in Teng et al; from tissue; host or cells: human platelets (sonicated lysate, 39,000×g supernatant)
As to the kind of experiment: Inhibition of PDE 5 (human platelet lysate, cGMP hydrolysis). Conditions: PDE 5 from washed human platelet supernatant; 10 μM cGMP; 37° C. 30 minutes; read-out: IC50 in inhibiting PDE 5. Type of data set: biochemical. The protocol: A suitable in vitro assay can be used to preliminarily evaluate the effect of a fused pyrazolyl compound on inhibiting a PDE, which hydrolyzes cGMP. For example, platelets are washed, suspended in a buffer, and disrupted by sonication to obtain a solution containing a PDE. A compound to be tested and cGMP (a substrate for the PDE) are added to the solution. Ophiophagus hannah snake venom is subsequently added to remove the phosphate in 5′-GMP (converted from cGMP by the PDE) to form uncharged guanosine. An ion-exchange resin is used to remove the remaining cGMP. The cGMP-free solution is then centrifuged, and an aliquot of the supernatant is taken for quantification of the uncharged guanosine in a liquid scintillation counter. Activity of the PDE is evaluated based on the amount of the uncharged guanosine. In vivo screening can be performed by following procedures well known in the art.
Washed human platelets were prepared by the method described in Teng et al. Biochem. Biophys. Acta. 1989, 990, 315-320, suspended in 50 mM pH 7.4 Tris-HCl buffer (containing 5 mM MgCl2), and then disrupted by sonication at 4° C. […] The cGMP-free solution thus obtained was then centrifuged, and 0.5 mL of the supernatant was taken for quantification of uncharged guanosine in a liquid scintillation counter.

As to `OCc1ccc(-c2nn(Cc3ccccc3)c3cc4c(cc23)OCO4)o1` [Compound 4, 1-benzyl-3-(5′-hydroxymethyl-2′-furyl)-5,6-methylenedioxoindazole], the melting point (commonly the temperature, or range, at which the solid turns liquid) was 122 to 123 °C. Take `COc1ccc2c(-c3ccc(CO)o3)nn(Cc3ccccc3)c2c1` [Compound 1, 1-benzyl-3-(5′-hydroxymethyl-2′-furyl)-6-methoxyindazole]: the melting point lay in the range of 109 to 110 °C. In addition, on PDE 5, the IC50 (commonly the concentration at which inhibition is half-maximal) stood at 3.5 µM.
